The results in this text go back to publication PMC7070443, “New Hybrid Pyrazole and Imidazopyrazole Antinflammatory Agents Able to Reduce ROS Production in Different Biological Targets” (Molecules, 2020).

“And” between values parts separate entries of the source, which are not always exact repeats. Equal values may be shown once. Some results are limits rather than exact numbers.

Data set [1] deals with human platelets. As to the kind of experiment: Platelet aggregation inhibition (Born's method, thrombin-stimulated washed platelets). The class given is cell-based. The conditions noted are these: 0.1 U/mL thrombin, mean +/- SD, at least six experiments in duplicate. The protocol: (§1) Freshly drawn venous blood from healthy volunteers of the “Centro Trasfusionale, Ospedale San Martino” in Genoa was collected into 130 mM aqueous trisodium citrate anticoagulant solution (9:1). The donors claimed to have not taken drugs known to interfere with platelet function during two weeks prior to blood collection and gave their informed consent. Washed platelets were prepared centrifuging whole blood at 100× g for 20 min. The obtained platelet-rich plasma was then centrifuged at 1100× g for 15 min. Pellet was washed once with pH 5.2 ACD solution (75 mM trisodium citrate, 42 mM citric acid and 136 mM glucose), centrifuged at 1100× g for 15 min and then re-suspended in pH 7.4 Hepes buffer (145 mM NaCl, 5 mM KCl, 1 mM MgSO4, 10 mM glucose, 10 mM HEPES).
Platelet aggregation was performed in a Bio-Data Aggregometer (Bio-Data Corporation, Horsham, PA, USA) according to Born’s method and quantified by the light transmission reached within 6 min at 37 °C. Briefly, washed platelets (3.0 × 10^8/mL) were pre-incubated for 3 min at 37 °C with saline, compound 4 or 5 before the addition of 0.1 U/mL thrombin. The IC50 values were calculated as above detailed.

For data set [2], the system named is human platelets. As to the kind of experiment: ROS production inhibition in thrombin-stimulated washed platelets (DCFH-DA, flow cytometry). The conditions noted are these: for activity towards ROS production in platelets (in words): human platelets, thrombin stimulated; for IC50: washed human platelets, 0.1 U/mL thrombin, DCFH-DA, mean +/- SD, at least six experiments in duplicate. The class given is cell-based. The method, then: as §1
ROS production was quantified as previously reported by DCFH-DA, a ROS-sensitive probe that yields upon oxidation the fluorescent adduct DCF that is trapped inside the cells. Briefly, washed platelets (1.0 × 10^8/mL), pre-incubated with saline, compounds 4 or 5, for 15 min at 37 °C, were stimulated by 0.1 U/mL thrombin. Incubation was stopped by cooling samples in ice bath and then samples were immediately analyzed in a Merck Millipore Bioscience Guava easyCyte flow cytometer (Merk Millipore, Burlington, MA, USA). The reported IC50 value is the molar concentration of the compound able to obtain 50% inhibition of the […] induced by the agonist and is calculated by the percentage of inhibition that is the inhibition of the […] measured in the presence of the agent compared with that measured in a control sample containing saline, carried out under the same conditions.

The term IC50 denotes the concentration at which inhibition is half-maximal. Higher therefore signals weaker potency. Take `COc1cccc(/C=N/NC(=O)c2cnn3c2NC(c2ccccc2)C3)c1Oc1ccccc1` (stereo not shown) [5i, (E)-N′-(2-(Phenoxy)-3-(methoxy)benzylidene)-2-phenyl-2,3-dihydro-1H-imidazo[1,2-b]pyrazole-7-carbo-hydrazide]: the IC50 in data set [1] and in data set [2] was more than 200 µM throughout. For the same compound, in data set [2], the “activity towards ROS production in platelets (in words)” value (from here on “activity towards ROS production”) was “completely inactive”.

One may read the melting point as the temperature, or range, at which the solid turns liquid. `COc1ccc(/C=N/NC(=O)c2cnn3c2NC(c2ccccc2)C3)cc1OC` (stereo not shown) [5a, (E)-N′-(3,4-Dimethoxybenzylidene)-2-phenyl-2,3-dihydro-1H-imidazo[1,2-b]pyrazole-7-carbohydrazide]: the melting point lay in the range of 206 to 207 °C. The IC50 in data set [1] (Platelet) came to 31.5 ± 5.2 µM. Further, in data set [2] (Homo sapiens, Platelet), half-maximal inhibition (IC50) was put at 37.2 ± 2.5 µM.

As to “(E)-5-Amino-N′-(3-(cyclopentyloxy)-4-methoxybenzylidene)-1-(2-hydroxy-2-phenylethyl)-1H-pyrazole-4-carbohydrazide [4k]”, the half-inhibitory concentration (IC50) is 86.1 ± 7.8 µM in data set [1]; 90 µM and 92.7 µM in data set [2].

`COc1cccc(/C=N/NC(=O)c2cnn(CC(O)c3ccccc3)c2N)c1OCc1ccccc1` (stereo not shown) [4j, (E)-5-Amino-N′-(2-(benzyloxy)-3-methoxybenzylidene)-1-(2-hydroxy-2-phenylethyl)-1H-pyrazole-4-carbohydrazide] displayed a melting point of 198 to 200 °C. In addition, in data set [1] (Platelet), the IC50 is more than 200 µM. Besides, in data set [2] (Homo sapiens, Platelet), the half-maximal inhibitory concentration (IC50) was more than 200 µM. Besides, the “activity towards ROS production” value in data set [2] is “completely inactive”.

As to `COc1cc(/C=N/NC(=O)c2cnn(CC(O)c3ccccc3)c2N)cc(OC)c1OC` (stereo not shown) [4h, (E)-5-Amino-1-(2-hydroxy-2-phenylethyl)-N′-(3,4,5-trimethoxybenzylidene)-1H-pyrazole-4-carbohydrazide], the IC50 in data set [1] (Platelet) was more than 200 µM; in data set [2] (Homo sapiens, Platelet), more than 200 µM. Moreover, the “activity towards ROS production” value in data set [2] is “inactive”.

As for `Nc1c(C(=O)N/N=C/c2ccc(OC(F)F)c(OCc3ccccc3)c2)cnn1CC(O)c1ccccc1` (stereo not shown) [4g, (E)-5-Amino-N′-(3-(benzyloxy)-4-(difluoromethoxy)benzylidene)-1-(2-hydroxy-2-phenylethyl)-1H-pyrazole-4-carbohydrazide], the melting point lay within 144 to 146 °C. Moreover, the half-maximal inhibitory concentration (IC50) in data set [1] (Platelet) was 11 ± 1.2 µM. In data set [2] (Homo sapiens, Platelet), this compound returned a half-inhibitory concentration (IC50) of approximately 10 µM. This compound yielded an IC50 in data set [2] of 9.5 ± 2.6 µM.

In turn, `COc1ccc(/C=N/NC(=O)c2cnn3c2NC(c2ccccc2)C3)cc1OC1CCCCC1` (stereo not shown) [5f, (E)-N′-(3-(Cyclohexyloxy)-4-(methoxy)benzylidene)-2-phenyl-2,3-dihydro-1H-imidazo[1,2-b]pyrazole-7-carbohydrazide] had a melting point of 119 to 120 °C. For the same compound, the IC50 in data set [1] (Platelet) worked out at 61.6 ± 6.5 µM. The compound further displayed an IC50 in data set [2] (Homo sapiens, Platelet) of 59.9 ± 5.7 µM.

Consider `O=C(N/N=C/c1ccc2c(c1)OCO2)c1cnn2c1NC(c1ccccc1)C2` (stereo not shown) [5g, (E)-N′-(benzo[d][1,3]dioxol-5-ylmethylene)-2-phenyl-2,3-dihydro-1H-imidazo[1,2-b]pyrazole-7-carbohydrazide], for which the 50% inhibitory concentration (IC50) in data set [1] (Platelet) was 67 ± 6.6 µM; in data set [2] (Homo sapiens, Platelet), 77.9 ± 7.1 µM.

Take `COc1cccc(/C=N/NC(=O)c2cnn3c2NC(c2ccccc2)C3)c1OC1CCCC1` (stereo not shown) [5b, (E)-N′-(2-(Cyclopentyloxy)-3-methoxybenzylidene)-2-phenyl-2,3-dihydro-1H-imidazo[1,2-b]pyrazole-7-carbohydrazide]: the half-inhibitory concentration (IC50) in data set [1] (Platelet) came out at 59.1 ± 5.5 µM; in data set [2] (Homo sapiens, Platelet), 66.7 ± 5.7 µM.

As for `COc1cc(/C=N/NC(=O)c2cnn3c2NC(c2ccccc2)C3)cc(OC)c1OC` (stereo not shown) [5h, (E)-2-Phenyl-N′-(3,4,5-trimethoxybenzylidene)-2,3-dihydro-1H-imidazo[1,2-b]pyrazole-7-carbohydrazide], the IC50 is more than 200 µM in data set [1] (Platelet) and more than 200 µM in data set [2] (Homo sapiens, Platelet). The “activity towards ROS production” value in data set [2] is “inactive”.

For `O=C(N/N=C/c1ccc(OC(F)F)c(OC2CCCC2)c1)c1cnn2c1NC(c1ccccc1)C2` (stereo not shown) [5e, (E)-N′-(3-(cyclopentyloxy)-4-(difluoromethoxy)benzylidene)-2-phenyl-2,3-dihydro-1H-imidazo[1,2-b]-pyrazole-7-carbohydrazide], the IC50 in data set [1] (Platelet) was 70.5 ± 8 µM; in data set [2] (Homo sapiens, Platelet), 78.8 ± 5.6 µM.
